# pIC50: −log10 of the molar value. Like-named read-outs stand apart in the source and are kept apart here.
# Assays:
# plants = settings: cited from earlier work
# BIN1 [1] = biological target: T1, BIN1 (Arabidopsis thaliana, UniProt O22476); assay: Binding kinetic studies of specific BL binding; set-up: from tissue; host or cells: wild-type Arabidopsis seedlings (microsomal fractions in A2; whole seedlings in A10)
# T1 sequence (O22476 24-1196): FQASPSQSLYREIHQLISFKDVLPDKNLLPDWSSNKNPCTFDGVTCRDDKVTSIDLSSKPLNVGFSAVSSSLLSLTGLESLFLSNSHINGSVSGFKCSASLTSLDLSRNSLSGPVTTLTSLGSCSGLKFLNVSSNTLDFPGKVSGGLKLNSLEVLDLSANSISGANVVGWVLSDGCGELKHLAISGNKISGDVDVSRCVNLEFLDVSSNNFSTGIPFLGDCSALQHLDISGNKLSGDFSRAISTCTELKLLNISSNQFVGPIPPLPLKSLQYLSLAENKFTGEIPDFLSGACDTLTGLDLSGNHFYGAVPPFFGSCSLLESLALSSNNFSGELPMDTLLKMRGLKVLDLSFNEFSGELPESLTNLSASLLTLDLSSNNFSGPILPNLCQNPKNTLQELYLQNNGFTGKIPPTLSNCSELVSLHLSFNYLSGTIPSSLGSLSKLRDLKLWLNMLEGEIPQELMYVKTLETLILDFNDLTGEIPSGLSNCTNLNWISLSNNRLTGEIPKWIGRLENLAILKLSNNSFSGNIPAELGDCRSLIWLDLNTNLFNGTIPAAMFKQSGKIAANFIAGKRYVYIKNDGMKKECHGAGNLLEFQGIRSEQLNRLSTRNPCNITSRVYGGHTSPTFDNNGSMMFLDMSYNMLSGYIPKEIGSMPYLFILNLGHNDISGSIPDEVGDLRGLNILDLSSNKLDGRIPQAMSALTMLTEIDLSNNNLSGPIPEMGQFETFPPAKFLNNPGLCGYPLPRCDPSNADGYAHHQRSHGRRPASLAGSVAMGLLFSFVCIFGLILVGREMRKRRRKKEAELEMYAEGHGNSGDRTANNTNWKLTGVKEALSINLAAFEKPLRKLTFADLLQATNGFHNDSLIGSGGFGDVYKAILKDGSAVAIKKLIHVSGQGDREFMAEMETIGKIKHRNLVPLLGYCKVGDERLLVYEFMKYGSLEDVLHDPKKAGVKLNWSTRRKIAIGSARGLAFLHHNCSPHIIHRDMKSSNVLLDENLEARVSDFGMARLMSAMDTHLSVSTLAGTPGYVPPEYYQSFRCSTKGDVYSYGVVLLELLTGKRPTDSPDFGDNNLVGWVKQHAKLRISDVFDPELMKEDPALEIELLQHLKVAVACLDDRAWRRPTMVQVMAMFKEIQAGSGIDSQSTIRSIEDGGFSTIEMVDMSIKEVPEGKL
# Text: (§1) Tetrahedron Lett. 39, 7525-7528 (1998). […] Science 288, 2360-3 (2000).
# BIN1 [2] = assay: BL induced BIN1 phosphorylation in seedlings (mobility shift on SDS-PAGE, immunoblot); format: in vivo, Arabidopsis; settings: BIN1-6 and BIN1117 mutant seedlings, 1 μM BL for 1 hour
# Description: (§3) Proteins were analyzed by 4% SDS-PAGE, blotted, and probed with anti-BIN1N antibody. b.
# (§4) Samples were analyzed by SDS-PAGE using 4% gels and western blotting as described above. […] For phosphatase treatment, SDS was removed from protein samples using the SDS-OUT kit (Pierce), and the proteins were then treated with alkaline phosphatase (Boehringer Mannheim) and protein phosphatase I (PPI, New England Biolab) under conditions recommended by the manufacturer and as described.
# BIN1 [3] = biological target: T1, BIN1; assay: as above; format: in vivo; set-up: from tissue; host or cells: wild-type Arabidopsis seedlings (microsomal fractions in A2; whole seedlings in A10); settings: det2 BL biosynthetic mutant seedlings, 1 μM BL for 1 hour
# Description: as §3, §4
# BIN1-GFP [4] = biological target: T2, BIN1-GFP (Arabidopsis thaliana, UniProt O22476); settings: membrane fractions of BIN1-GFP transgenic plants
# [5] = biological target: T3, BIN1-6, G644-D (70-aa island) (Arabidopsis thaliana, UniProt O22476, G644D); format: binding; settings: BIN1-6 mutant, compared with wild type
# T3 construct: microsomal fractions of wild type (WT), det2, BIN1-6, BIN1-116, BIN1-104, and BIN1-102 mutant plants; from tissue; host or cells: microsomal fractions of BIN1-6 mutant Arabidopsis plants
# Text: (§2) Mutations in large numbers of BIN1 alleles implicate the functional importance of the cytoplasmic kinase domain and the 70-aa island of BIN1's extracellular domain.
# as §1
# [6] = biological target: T4, BIN1-116, Q583-stop (70-aa island) (Arabidopsis thaliana, UniProt O22476); format: binding; settings: BIN1-116 mutant, compared with wild type
# T4 construct: microsomal fractions of wild type (WT), det2, BIN1-6, BIN1-116, BIN1-104, and BIN1-102 mutant plants; from tissue; host or cells: microsomal fractions of BIN1-116 mutant Arabidopsis plants
# T4 sequence (O22476 24-582 limits assumed): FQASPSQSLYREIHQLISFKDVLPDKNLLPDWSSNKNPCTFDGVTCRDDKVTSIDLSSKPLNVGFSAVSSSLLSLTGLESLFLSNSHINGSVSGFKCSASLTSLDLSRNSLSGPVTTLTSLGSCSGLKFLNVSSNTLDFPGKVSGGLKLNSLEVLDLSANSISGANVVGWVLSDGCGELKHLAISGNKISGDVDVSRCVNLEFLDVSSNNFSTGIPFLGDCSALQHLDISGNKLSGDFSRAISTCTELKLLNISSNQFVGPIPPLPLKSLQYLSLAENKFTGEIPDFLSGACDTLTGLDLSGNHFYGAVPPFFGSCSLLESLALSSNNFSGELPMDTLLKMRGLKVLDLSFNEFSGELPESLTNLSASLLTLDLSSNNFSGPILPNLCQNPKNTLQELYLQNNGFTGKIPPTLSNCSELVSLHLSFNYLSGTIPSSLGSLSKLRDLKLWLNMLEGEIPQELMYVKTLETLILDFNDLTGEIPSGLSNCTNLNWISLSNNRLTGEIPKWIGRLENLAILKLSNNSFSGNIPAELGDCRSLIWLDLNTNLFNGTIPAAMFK
# Text: as §2, §1
# BIN1 [7] = biological target: T1, BIN1; settings: membrane fractions of wild-type plants
# BIN1-GFP [8] = biological target: T2, BIN1-GFP; format: binding; set-up: expressed in transfected cells; host or cells: transgenic Arabidopsis plants (microsomal fractions, or anti-GFP immunoprecipitate from extracts)
# T2 sequence (O22476 with tags, fused parts or gaps): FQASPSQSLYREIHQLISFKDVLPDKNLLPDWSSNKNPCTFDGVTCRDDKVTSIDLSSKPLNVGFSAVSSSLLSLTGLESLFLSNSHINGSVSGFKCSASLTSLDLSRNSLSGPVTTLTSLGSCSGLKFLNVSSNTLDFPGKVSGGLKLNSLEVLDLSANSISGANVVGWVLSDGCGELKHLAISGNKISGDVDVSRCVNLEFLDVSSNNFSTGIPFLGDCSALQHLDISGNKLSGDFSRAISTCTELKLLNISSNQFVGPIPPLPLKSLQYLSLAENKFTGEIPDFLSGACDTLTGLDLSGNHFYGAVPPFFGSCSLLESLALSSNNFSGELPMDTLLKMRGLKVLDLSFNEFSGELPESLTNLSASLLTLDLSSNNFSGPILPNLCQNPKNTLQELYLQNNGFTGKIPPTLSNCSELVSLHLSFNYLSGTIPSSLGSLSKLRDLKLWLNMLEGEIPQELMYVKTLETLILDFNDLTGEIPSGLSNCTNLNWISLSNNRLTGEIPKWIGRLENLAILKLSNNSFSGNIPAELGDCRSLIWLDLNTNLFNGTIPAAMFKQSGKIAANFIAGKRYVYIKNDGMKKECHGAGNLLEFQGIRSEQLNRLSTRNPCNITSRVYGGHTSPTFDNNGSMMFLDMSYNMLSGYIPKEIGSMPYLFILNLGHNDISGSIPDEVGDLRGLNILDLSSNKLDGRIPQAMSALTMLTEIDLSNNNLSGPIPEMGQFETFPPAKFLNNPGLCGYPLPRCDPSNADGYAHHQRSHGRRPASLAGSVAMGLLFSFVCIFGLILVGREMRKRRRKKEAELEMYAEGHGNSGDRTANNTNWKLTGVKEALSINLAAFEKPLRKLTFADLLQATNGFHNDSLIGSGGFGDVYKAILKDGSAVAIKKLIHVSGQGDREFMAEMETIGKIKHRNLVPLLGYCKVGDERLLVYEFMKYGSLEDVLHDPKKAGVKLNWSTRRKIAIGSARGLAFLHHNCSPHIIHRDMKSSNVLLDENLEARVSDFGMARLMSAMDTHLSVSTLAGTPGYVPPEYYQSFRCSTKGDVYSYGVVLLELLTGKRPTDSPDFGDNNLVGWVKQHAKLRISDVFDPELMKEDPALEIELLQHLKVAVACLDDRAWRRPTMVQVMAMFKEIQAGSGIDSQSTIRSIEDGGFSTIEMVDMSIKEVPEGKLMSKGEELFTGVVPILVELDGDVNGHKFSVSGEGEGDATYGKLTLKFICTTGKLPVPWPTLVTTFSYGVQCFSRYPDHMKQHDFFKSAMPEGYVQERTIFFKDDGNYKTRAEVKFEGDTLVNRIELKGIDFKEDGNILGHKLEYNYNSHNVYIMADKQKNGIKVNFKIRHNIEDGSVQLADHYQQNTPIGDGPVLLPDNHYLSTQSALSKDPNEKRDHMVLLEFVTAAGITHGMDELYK
# T3 sequence (O22476 24-1196 G644D): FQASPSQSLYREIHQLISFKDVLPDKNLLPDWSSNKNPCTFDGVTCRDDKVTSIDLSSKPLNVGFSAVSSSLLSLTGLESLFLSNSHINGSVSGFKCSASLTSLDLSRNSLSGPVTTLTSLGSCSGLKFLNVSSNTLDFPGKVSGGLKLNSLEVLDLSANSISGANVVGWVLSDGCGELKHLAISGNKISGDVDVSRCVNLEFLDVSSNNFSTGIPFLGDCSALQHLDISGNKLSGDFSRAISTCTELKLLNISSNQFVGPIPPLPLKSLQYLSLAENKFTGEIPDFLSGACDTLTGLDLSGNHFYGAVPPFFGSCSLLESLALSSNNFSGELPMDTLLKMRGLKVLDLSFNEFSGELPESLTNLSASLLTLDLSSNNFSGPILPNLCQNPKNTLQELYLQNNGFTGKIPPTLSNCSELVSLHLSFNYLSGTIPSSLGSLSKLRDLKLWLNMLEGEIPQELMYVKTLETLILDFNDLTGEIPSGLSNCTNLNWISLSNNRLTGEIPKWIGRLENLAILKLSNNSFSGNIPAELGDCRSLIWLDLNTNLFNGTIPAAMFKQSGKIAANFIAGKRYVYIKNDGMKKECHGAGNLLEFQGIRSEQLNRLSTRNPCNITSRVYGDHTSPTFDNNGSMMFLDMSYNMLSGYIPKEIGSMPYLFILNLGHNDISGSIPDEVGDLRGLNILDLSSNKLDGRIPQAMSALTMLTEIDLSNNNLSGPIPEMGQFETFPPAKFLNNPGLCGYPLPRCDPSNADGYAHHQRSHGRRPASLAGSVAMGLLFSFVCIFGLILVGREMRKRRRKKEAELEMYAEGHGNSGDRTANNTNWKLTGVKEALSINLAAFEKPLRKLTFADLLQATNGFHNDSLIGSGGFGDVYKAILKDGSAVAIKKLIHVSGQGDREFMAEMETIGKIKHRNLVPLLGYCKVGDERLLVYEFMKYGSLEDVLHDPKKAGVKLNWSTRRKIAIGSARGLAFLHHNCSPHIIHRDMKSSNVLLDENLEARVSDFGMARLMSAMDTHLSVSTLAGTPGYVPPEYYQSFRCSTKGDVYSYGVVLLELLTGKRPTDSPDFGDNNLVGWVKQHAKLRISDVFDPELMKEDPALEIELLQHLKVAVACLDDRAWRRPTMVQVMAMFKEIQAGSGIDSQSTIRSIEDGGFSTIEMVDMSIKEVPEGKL
compound,measurement,setting,value
"2,3,22,23-O-tetramethylBL [Me-BL]",biological activity in plants,plants,lack of biological activity
"CC(C)[C@H](C)[C@@H](O)[C@H](O)[C@@H](C)[C@H]1CC[C@H]2[C@@H]3COC(=O)[C@H]4C[C@H](O)[C@H](O)C[C@]4(C)[C@H]3CC[C@]12C [BL, brassinolide]",time to 50% competition by unlabelled BL (reversibility of binding),BIN1 [1],less than 1 min
same,time for specific BL binding to reach equilibrium,BIN1 [1]; incubation at 25° C.,≤ 15 min
same,BL-induced BIN1 phosphorylation,BIN1 [2],not
same,BL-induced BIN1 phosphorylation,BIN1 [3],also observed
same,Bmax (BL binding sites),BIN1-GFP [4],2.66 pmole mg^−1 membrane protein
same,BL binding activity,[5],greatly reduced
same,BL binding activity,[6],greatly reduced
same,Bmax (BL binding sites),BIN1 [7],0.23 pmole mg^−1 membrane protein
CC(C)[C@H](C)[C@@H](O)[C@H](O)[C@@H](C)[C@H]1CC[C@H]2[C@@H]3CC(=O)[C@H]4C[C@H](O)[C@H](O)C[C@]4(C)[C@H]3CC[C@]12C [castasterone],"relative binding affinity (RBA, ratio between IC50 of a competitor and that of BL)",BIN1-GFP [8]; membrane fraction of BIN1-GFP plants,4-5 times lower than BL
same,pIC50,"BIN1-GFP [8]; read-out: 50% inhibition concentration, IC50, of [3H]-BL binding, membrane fraction of BIN1-GFP plants",6.47
same,activity in bioassays relative to BL,plants; bioassays,about 5 times less active than BL
C[C@H]([C@H](O)CCC(C)(C)O)[C@H]1CC[C@@]2(O)C3=CC(=O)[C@@H]4C[C@@H](O)[C@@H](O)C[C@]4(C)[C@H]3CC[C@]12C [ecdysone],pIC50,BIN1-GFP [8],< 5.00
same,biological activity in plants,plants,lack of biological activity
